In ChEMBL document CHEMBL4257227, “Deubiquitinase inhibitors and methods for use of the same” (2016):
Activity calls are given as the source filed them. The calls are words filed in the database; no cut-off is given here.

Assays:
A375/R [1] = test: Induction of apoptosis in human A375R cells assessed as induction of caspase-3 activation; format: functional, cell-based
Mus musculus [2] = test: Toxicity in human A375 cells xenografted NOD/SCID/gamma-2 knockout mouse assessed effect on body weight at 7.5 mg/kg, ip once per day for 8 days; format: functional, organism-based
[3] = biological target: Ubiquitin carboxyl-terminal hydrolase 9X (Homo sapiens) (UniProt Q93008); test: Inhibition of Usp9x in human MM1.S cells assessed as reduction in caspase activity by measuring cleaved PARP protein levels at 5 uM incubated for 5 to 240 mins by SDS-PAGE and immunoblotting; format: cell-based
Ubiquitin carboxyl-terminal hydrolase 9X (Homo sapiens), sequence (Q93008 whole entry): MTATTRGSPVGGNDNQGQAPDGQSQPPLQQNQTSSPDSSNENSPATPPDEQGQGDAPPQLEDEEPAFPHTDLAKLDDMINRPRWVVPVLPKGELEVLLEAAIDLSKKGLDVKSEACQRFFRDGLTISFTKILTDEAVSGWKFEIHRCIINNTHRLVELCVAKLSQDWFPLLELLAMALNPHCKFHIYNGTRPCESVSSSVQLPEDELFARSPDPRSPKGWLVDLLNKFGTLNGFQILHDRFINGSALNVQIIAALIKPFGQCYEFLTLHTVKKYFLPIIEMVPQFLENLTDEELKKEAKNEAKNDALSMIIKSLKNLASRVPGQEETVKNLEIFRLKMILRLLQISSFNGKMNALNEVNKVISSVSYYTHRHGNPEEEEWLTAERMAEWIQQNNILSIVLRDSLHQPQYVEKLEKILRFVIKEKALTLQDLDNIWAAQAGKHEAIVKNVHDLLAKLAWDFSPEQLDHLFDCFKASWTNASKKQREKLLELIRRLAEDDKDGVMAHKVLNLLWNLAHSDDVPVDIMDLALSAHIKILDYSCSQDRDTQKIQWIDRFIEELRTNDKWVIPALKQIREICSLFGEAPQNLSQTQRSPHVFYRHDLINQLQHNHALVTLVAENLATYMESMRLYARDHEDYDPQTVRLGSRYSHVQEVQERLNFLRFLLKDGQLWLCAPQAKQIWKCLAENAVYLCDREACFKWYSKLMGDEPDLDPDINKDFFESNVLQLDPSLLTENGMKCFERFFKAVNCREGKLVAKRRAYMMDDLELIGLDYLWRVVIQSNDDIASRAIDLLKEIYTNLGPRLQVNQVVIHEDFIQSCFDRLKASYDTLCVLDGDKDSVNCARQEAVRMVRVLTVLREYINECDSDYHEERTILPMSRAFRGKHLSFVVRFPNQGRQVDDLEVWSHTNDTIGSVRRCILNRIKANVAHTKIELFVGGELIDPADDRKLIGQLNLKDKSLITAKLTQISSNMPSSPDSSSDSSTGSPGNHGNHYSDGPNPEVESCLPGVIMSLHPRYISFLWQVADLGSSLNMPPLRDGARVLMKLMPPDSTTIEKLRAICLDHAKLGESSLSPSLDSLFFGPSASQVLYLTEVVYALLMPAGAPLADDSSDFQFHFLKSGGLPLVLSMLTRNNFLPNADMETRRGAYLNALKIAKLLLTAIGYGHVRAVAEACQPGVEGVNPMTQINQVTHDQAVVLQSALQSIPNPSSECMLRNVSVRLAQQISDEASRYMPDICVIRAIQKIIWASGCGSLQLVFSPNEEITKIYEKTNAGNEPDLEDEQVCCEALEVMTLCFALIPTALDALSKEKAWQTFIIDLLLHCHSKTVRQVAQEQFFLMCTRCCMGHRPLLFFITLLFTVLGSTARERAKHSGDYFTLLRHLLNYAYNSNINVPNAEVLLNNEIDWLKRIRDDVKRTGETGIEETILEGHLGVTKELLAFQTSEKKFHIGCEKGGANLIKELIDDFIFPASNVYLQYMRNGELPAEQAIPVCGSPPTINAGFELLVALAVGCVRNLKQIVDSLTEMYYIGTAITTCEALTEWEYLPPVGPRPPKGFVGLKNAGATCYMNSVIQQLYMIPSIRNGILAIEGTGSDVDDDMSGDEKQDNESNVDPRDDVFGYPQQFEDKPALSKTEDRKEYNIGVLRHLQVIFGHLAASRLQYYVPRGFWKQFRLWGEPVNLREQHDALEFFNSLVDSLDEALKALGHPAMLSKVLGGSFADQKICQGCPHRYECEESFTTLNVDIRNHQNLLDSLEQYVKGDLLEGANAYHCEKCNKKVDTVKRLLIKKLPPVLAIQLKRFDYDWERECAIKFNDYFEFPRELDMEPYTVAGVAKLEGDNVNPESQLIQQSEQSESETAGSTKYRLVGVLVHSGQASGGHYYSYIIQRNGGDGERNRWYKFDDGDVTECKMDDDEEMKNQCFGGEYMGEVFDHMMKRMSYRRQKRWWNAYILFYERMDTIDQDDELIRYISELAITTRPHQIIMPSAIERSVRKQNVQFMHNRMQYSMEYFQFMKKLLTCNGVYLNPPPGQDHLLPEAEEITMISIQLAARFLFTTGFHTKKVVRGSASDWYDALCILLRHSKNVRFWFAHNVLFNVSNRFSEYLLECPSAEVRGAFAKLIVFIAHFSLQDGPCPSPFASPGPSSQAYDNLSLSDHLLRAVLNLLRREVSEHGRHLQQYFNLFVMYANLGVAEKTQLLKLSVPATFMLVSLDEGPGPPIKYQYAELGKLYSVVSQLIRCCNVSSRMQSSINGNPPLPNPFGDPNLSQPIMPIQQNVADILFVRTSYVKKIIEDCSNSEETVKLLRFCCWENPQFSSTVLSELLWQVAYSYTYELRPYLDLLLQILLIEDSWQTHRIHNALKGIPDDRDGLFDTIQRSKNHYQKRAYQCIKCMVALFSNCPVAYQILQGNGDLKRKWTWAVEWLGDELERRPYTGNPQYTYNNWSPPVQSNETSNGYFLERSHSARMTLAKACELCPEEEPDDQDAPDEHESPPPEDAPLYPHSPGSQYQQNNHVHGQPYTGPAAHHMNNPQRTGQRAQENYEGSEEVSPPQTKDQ

Sindbis virus = test: Antiviral activity against Sindbis virus infected in African green monkey Vero cells assessed as reduction in viral plaque forming units; format: functional, organism-based
Mus musculus [4] = test: Toxicity in human A375 cells xenografted NOD/SCID/gamma-2 knockout mouse assessed as effect on behaviour at 7.5 to 15 mg/kg, ip once per day for 8 days; format: functional, organism-based
Mus musculus [5] = test: Toxicity in human A375 cells xenografted NOD/SCID/gamma-2 knockout mouse assessed as induction of body weight loss at 7.5 to 15 mg/kg, ip once per day for 8 days; format: functional, organism-based
A-375 [6] = test: Induction of p53 protein expression in Vemurafenib resistant human A375 cells; format: functional, cell-based
Mus musculus [7] = test: Inhibition of Usp9x in tumor of human MM1S cells xenografted in NOD/SCID/gamma-2 knockout mouse at 15 mg/kg, ip once per day for 14 days; format: organism-based; settings: in vivo, 336 h
La Crosse virus = test: Antiviral activity against La Crosse virus virus infected in human Be2-c cells assessed as reduction in viral plaque forming units; format: functional, organism-based
[8] = Plasma concentration in Balb/c mouse at 10 mg/kg, iv after 2 hrs by LC-MS analysis; format: ADME, organism-based
MM1.S [9] = test: Antitumor activity against human MM1S cells xenografted in NOD/SCID/gamma-2 knockout mouse assessed as inhibition of tumor growth at 2.5 to 10 mg/kg, ip once per day for 14 days; format: functional, organism-based
[10] = biological target: Ubiquitin carboxyl-terminal hydrolase 9X (Homo sapiens) (UniProt Q93008); test: Inhibition of USP9x in Vemurafenib resistant human A375 cells assessed as STAT3 phosphorylation
A-375 [11] = test: Antitumor activity against human A375 cells xenografted in NOD/SCID/gamma-2 knockout mouse assessed as inhibition of tumor growth at 7.5 to 15 mg/kg, ip once per day for 8 days; format: functional, organism-based
[12] = biological target: Ubiquitin carboxyl-terminal hydrolase 9X (Homo sapiens) (UniProt Q93008); test: Inhibition of Usp9x in human MM1.S cells assessed as reduction in MCL-1 protein levels at 5 uM incubated for 5 to 240 mins by SDS-PAGE and immunoblotting; format: cell-based
MM1.S [13] = test: Antitumor activity against human MM1S cells xenografted in NOD/SCID/gamma-2 knockout mouse assessed as inhibition of tumor growth at 5 to 20 mg/kg, ip once per day for 14 days; format: functional, organism-based
[14] = system: CD34-positive blood stem/progenitor cell; test: Induction of apoptosis in human CD34+ cells at 0.3125 to 5 uM incubated for 24 hrs by annexin V staining based flow cytometry; settings: cd34-positive (myeloid/lymphoid) cell
[15] = biological target: Ubiquitin carboxyl-terminal hydrolase 9X (Homo sapiens) (UniProt Q93008); test: Inhibition of USP9x in Vemurafenib sensitive human A375 cells
[16] = biological target: T1, Ubiquitin carboxyl-terminal hydrolase 5 (Homo sapiens) (UniProt P45974); test: Inhibition of USP5 in Vemurafenib resistant human A375 cells
T1 sequence (whole entry): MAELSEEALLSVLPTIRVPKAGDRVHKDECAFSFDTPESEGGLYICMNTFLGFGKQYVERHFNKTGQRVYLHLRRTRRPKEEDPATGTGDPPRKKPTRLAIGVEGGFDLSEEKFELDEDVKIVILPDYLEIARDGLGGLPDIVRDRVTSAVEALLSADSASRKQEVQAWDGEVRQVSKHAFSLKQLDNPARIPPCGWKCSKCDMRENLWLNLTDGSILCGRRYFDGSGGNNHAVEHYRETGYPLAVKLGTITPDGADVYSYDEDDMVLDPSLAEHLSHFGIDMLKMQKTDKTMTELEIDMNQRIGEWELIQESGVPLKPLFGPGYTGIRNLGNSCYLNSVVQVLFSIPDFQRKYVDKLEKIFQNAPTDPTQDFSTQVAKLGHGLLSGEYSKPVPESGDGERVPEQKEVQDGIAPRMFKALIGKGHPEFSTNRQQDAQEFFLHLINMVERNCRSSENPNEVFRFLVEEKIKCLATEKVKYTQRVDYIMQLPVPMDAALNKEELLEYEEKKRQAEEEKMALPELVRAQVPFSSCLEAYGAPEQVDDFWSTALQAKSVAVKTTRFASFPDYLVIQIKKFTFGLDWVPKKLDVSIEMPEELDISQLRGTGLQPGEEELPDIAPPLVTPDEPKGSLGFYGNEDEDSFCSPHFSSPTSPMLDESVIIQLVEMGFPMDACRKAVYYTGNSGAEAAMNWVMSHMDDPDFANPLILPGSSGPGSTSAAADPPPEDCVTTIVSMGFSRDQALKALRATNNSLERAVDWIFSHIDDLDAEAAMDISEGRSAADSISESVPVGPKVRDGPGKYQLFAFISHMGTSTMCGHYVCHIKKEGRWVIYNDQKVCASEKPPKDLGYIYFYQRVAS

[17] = Plasma concentration in Balb/c mouse at 30 mg/kg, po after 7 hrs by LC-MS analysis; format: ADME, organism-based
[18] = Plasma concentration in Balb/c mouse at 10 mg/kg, iv after 0.5 hrs by LC-MS analysis; format: ADME, organism-based
[19] = Plasma concentration in Balb/c mouse at 10 mg/kg, iv after 7 hrs by LC-MS analysis; format: ADME, organism-based
A375/R [20] = test: Induction of apoptosis in human A375R cells assessed as induction of PARP cleavage; format: functional, cell-based
Murine norovirus = test: Antiviral activity against Murine norovirus infected in mouse RAW264.7 cells assessed as reduction in viral plaque forming units; format: functional, organism-based

inhibition [3]: Active | inhibition (INH) (Mus musculus [7]): Active | concentration at 2 h [8]: 395 to 520 ng/mL | inhibition [10]: Active | inhibition [12]: Active | inhibition [15]: Active | inhibition [16]: Active | concentration at 7 h [17]: 16.1 to 37.6 ng/mL | concentration at 0.5 h [18]: 1220 to 1880 ng/mL | concentration at 7 h [19]: 38.6 to 208 ng/mL
Structure (SMILES): CCCC(NC(=O)/C(C#N)=C/c1nc(Cl)ccc1Cl)c1ccc(OCCN2CCOCC2)cc1 (stereo not drawn)
Activity (A375/R [1]): Active | Activity (Mus musculus [2]): Not toxic | Activity (Sindbis virus): Active | Activity (Mus musculus [4]): Not toxic | Activity (Mus musculus [5]): Not toxic | Activity (A-375 [6]): inactive | Activity (La Crosse virus): Active | TGI (MM1.S [9]): Active | TGI (A-375 [11]): Active | TGI (MM1.S [13]): Active | Activity [14]: Non-Toxic | Activity (A375/R [20]): Active | Activity (Murine norovirus): Active
